Data taken from the NIST ThermoML archive (doi:10.1016/j.jct.2005.01.007).
Several values for one entry are separate records, joined by “and”; a condition that tells them apart may be missing. Equal values may be shown once.

Tests used:
[1] = 101 kPa, Liquid
[2] = refractive index (Na D-line) (dimensionless); conditions: 298.15 K; 101.33 kPa; Liquid; Standard Abbe refractometry
[3] = xn = mol fraction of the nth substance listed; conditions: 101 kPa, Liquid

CCC(=O)c1ccccc1 [ethyl phenyl ketone]
[1]
Conditions	mass density
298.15 K	1005.24 kg/m3 and 1005.26 kg/m3 and 1005.29 kg/m3
328.15 K	979.5 kg/m3 [middle of 4 runs]

Conditions	refractive index
[2]	1.5245

Cc1ccccc1 [toluene] + CCC(=O)c1ccccc1
[3], x1 = 1
Conditions	mass density [kg/m3]
298.15 K	862.25
328.15 K	834.25

CCc1ccccc1 [ethylbenzene] + CCC(=O)c1ccccc1
[3], x1 = 1
Conditions	mass density [kg/m3]
298.15 K	862.26
328.15 K	835.86

CCc1ccccc1 [ethylbenzene]
[1]
Conditions	mass density [kg/m3]
298.15 K	862.26
328.15 K	835.86

Conditions	refractive index
[2]	1.4931

CCC(=O)c1ccccc1 [ethyl phenyl ketone] + Cc1ccccc1
mass density [kg/m3], [3]
Conditions	298.15 K	328.15 K
x2 = 0	1005.26	979.48
x2 = 0.09253	995.05	969.14
x2 = 0.1872	984.09	958.07
x2 = 0.2777	973.13	946.96
x2 = 0.3634	962.24	935.91
x2 = 0.4547	950.09	923.57
x2 = 0.5572	935.66	908.94
x2 = 0.6402	923.36	896.42
x2 = 0.7203	910.9	883.78
x2 = 0.8278	893.2	865.77
x2 = 0.9099	878.86	851.18

CCC(=O)c1ccccc1 [ethyl phenyl ketone] + CCc1ccccc1
mass density [kg/m3], [3]
Conditions	298.15 K	328.15 K
x2 = 0	1005.29	979.5
x2 = 0.1025	992.18	966.3
x2 = 0.1878	981.02	955.11
x2 = 0.2741	969.49	943.55
x2 = 0.3668	956.85	930.84
x2 = 0.4491	945.37	919.32
x2 = 0.5504	930.94	904.84
x2 = 0.6359	918.44	892.32
x2 = 0.7246	905.22	879.02
x2 = 0.831	888.99	862.68
x2 = 0.9093	876.76	850.4
